The values below come from patent US20250171431A1, “HETEROCYCLIC INHIBITORS OF IGF-1R FOR TREATMENT OF DISEASE” (HORIZON THERAPEUTICS IRELAND DAC, priority 2023, published 2025).

A word on the IC50: it is the concentration that gives 50% inhibition.

SMILES strings stand for the structures.

The experiment has as its target IGF-1R (Homo sapiens (Human), UniProt P08069). The experiment is described as follows: Example B-1: IGF-1R Assay (PC3 cells, IGF1 stimulation, AlphaLISA). Conditions: 200 ng/mL IGF1 stimulation, read-out: Biological Activity against IGF-1R IC50. Type of experiment: cell-based. The protocol:
50K PC3 cells were seeded on day 1 in 50 μL of media in 96-well plate and incubated overnight at 37° C., 5% CO2. On day 2, all cells were expected to be at 80-90% confluency. Cells were starved for two hours by changing the media to 90 μL of EMEM serum-free media and incubated for 2 hours. Next, cells were treated with 10 μL of 10× concentrated and 3× serially diluted compounds for two hours. It makes 1× of compounds in 100 μL media. This was followed by stimulation of cells with 11×IGF1 for 30 min in 10 μL of serum-free EMEM media at the final concentration of 200 ng/mL.
The media was removed and replaced by 50 μL of 1× lysis buffer from the AlphaLISA kit (with 1× of cOmplete™ protease inhibitor). The plates were sealed, and cells were allowed to lyse for 10 min in the shaker before storing the plate at −20° C. until used. The AlphaLISA assay with processed cell lysates were performed as described in the protocol. Briefly, 10 μL of the undiluted sample were loaded to 384 well Optiplates and 5 μL of the acceptor mix (as described in the AlphaLISA kit) was added to each well. The plates were sealed and briefly vortexed followed by the incubation at RT for 3 hours. In the dark, 5 μL of donor mix was added to each well. All plates were sealed and stored at RT overnight. The plates were read in EnVision reader using standard AlphaLISA settings.
Compound activity was analyzed using CBIS data analysis suite (ChemInnovation, CA). Percentage inhibition was calculated using the following formula: % Inhibition=100%×(1−(mean RLU of test sample−mean RLU of vehicle control)/(mean RLU of EC80 control−mean RLU of vehicle control)). The activity for representative examples of the invention is shown in the following table, wherein A: IC50≤500 nM; B: 500 nM<IC50≤2 μM; C: 2 μM<IC50≤10 μM; D: IC50>10 μM.
On the technique in general: Bead proximity is the source of the signal in Alpha formats.

Chain of IGF-1R (P08069 31-1367): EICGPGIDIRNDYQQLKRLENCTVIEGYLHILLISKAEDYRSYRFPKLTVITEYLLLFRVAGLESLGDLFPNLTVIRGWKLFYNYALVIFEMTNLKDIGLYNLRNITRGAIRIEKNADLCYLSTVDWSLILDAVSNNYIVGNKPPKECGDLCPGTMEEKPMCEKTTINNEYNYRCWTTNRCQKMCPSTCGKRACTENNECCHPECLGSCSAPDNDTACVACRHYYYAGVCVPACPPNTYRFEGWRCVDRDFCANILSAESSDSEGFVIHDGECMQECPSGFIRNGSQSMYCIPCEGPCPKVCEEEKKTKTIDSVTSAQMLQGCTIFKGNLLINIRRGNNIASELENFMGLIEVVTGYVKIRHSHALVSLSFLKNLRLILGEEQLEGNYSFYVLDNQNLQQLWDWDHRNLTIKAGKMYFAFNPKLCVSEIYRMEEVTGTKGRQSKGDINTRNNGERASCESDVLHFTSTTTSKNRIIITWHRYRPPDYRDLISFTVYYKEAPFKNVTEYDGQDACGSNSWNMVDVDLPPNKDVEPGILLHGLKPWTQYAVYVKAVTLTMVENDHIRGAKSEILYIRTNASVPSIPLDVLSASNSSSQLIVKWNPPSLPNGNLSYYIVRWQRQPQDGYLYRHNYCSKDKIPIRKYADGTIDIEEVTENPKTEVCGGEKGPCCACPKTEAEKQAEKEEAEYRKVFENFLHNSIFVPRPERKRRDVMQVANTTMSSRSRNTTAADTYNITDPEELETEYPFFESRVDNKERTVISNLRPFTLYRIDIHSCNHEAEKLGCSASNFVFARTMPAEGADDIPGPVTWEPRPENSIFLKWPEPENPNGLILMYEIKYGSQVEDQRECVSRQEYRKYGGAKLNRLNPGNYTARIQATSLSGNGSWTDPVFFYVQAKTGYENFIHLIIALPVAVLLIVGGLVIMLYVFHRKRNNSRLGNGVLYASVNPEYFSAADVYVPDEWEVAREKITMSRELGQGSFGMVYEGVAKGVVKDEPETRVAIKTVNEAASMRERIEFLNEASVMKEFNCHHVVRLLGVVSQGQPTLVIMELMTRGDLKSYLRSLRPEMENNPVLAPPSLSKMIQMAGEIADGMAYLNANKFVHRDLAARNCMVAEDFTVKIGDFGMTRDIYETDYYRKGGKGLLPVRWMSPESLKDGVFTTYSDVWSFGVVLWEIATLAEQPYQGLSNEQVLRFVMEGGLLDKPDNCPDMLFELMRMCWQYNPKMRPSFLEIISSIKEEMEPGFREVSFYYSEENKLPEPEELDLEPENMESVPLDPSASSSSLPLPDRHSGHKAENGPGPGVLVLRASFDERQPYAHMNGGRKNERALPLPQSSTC

As for `COc1cc(Nc2nccc(Nc3cc4ccc(Cl)cc4[nH]c3=O)n2)ccc1O[C@H]1C[C@H](N(C)C)C1` [Compound 110, 7-chloro-3-(2-{3-methoxy-4-[(1r,3r)-3-(dimethylamino)cyclobutoxy]phenyl-amino}-4-pyrimidinylamino)-1,2-dihydro-2-quinolinone], the IC50 was at most 0.5 µM. Under `COc1cc(Nc2nccc(Nc3cnc4ccc(Cl)cc4c3)n2)ccc1O[C@H]1C[C@@H](N(C)C)C1` [Compound 343, 4-(6-chloro-3-quinolylamino)-2-{3-methoxy-4-[(1s,3s)-3-(dimethylamino)cyclobutoxy]phenylamino}pyrimidine] stands at most 0.5 µM; under `N#Cc1ccc2ncc(Nc3ccnc(Nc4ccc(OCCCN5CCOCC5)cc4)n3)cc2c1` [Compound 396, 3-{2-[p-(3-morpholinopropoxy)phenylamino]-4-pyrimidinylamino}-6-quinolinecarbonitrile], 2 to 10 µM; under `COc1cc(Nc2nccc(Nc3cnc4ccc(Cl)cc4c3)n2)cnc1N1CCN(C)CC1` [Compound 477, 4-(6-chloro-3-quinolylamino)-2-[5-methoxy-6-(4-methyl-1-piperazinyl)-3-pyridylamino]pyrimidine], at most 0.5 µM. Under `COc1cc(Nc2nccc(Nc3cnc4ccc(C(F)F)cc4c3)n2)cnc1O[C@H]1C[C@@H](N(C)C)C1` [Compound 163, 4-[6-(difluoromethyl)-3-quinolylamino]-2-{5-methoxy-6-[(1s,3s)-3-(dimethylamino)cyclobutoxy]-3-pyridylamino}pyrimidine] stands at most 0.5 µM; under `COc1cc(Nc2nccc(Nc3cnc4[nH]cc(Br)c4c3)n2)ccc1O[C@H]1C[C@@H](N(C)C)C1` [Compound 203, 4-(3-bromo-1H-1,7-diazainden-5-ylamino)-2-{3-methoxy-4-[(1s,3s)-3-(dimethylamino)cyclobutoxy]phenylamino}pyrimidine], at most 0.5 µM; under `COc1cc(Nc2ncc(F)c(Nc3cc4cccc(F)c4[nH]c3=O)n2)ccc1O[C@H]1C[C@@H](N(C)C)C1` [Compound 242, 8-fluoro-3-(5-fluoro-2-{3-methoxy-4-[(1s,3s)-3-(dimethylamino)cyclobutoxy]phenyl-amino}-4-pyrimidinylamino)-1,2-dihydro-2-quinolinone], 2 to 10 µM. The value for `CC(O)C(=O)N1CCN(c2ccc(Nc3nccc(Nc4cnc5ccccc5c4)n3)cc2)CC1` (stereo not shown) [Compound 465, 2-hydroxy-1-(4-{p-[4-(3-quinolylamino)-2-pyrimidinylamino]phenyl}-1-piperazinyl)-1-propanone] was at most 0.5 µM.

Regarding `COc1cc(Nc2nccc(Nc3cc4ccc(F)cc4[nH]c3=O)n2)cnc1O[C@H]1C[C@@H](N(C)C)C1` [Compound 244, 7-fluoro-3-(2-{5-methoxy-6-[(1s,3s)-3-(dimethylamino)cyclobutoxy]-3-pyridylamino}-4-pyrimidinylamino)-1,2-dihydro-2-quinolinone], the IC50 is at most 0.5 µM. Under `c1ccc2ncc(Nc3ccnc(Nc4ccc(O[C@H]5C[C@H](N6CCOCC6)C5)cc4)n3)cc2c1` [Compound 26, 4-(3-quinolylamino)-2-{p-[(1r,3r)-3-morpholinocyclobutoxy]phenylamino}pyrimidine] stands at most 0.5 µM. Under `COc1cc(Nc2nccc(Nc3cnc4c(c3)OCCO4)n2)ccc1O[C@H]1C[C@H](N2CCS(=O)(=O)CC2)C1` [Compound 359, 4-[(1r,3r)-3-{4-[4-(2,3-dihydro-1,4-dioxa-5-aza-7-naphthylamino)-2-pyrimidinylamino]-2-methoxyphenoxy}cyclobutyl]-1λ^6,4-thiazinane-1,1-dione] stands at most 0.5 µM; under `c1ccc2ncc(Nc3ccnc(Nc4ccc(O[C@H]5C[C@@H](N6CCOCC6)C5)cc4)n3)cc2c1` [Compound 28, 4-(3-quinolylamino)-2-{p-[(1s,3s)-3-morpholinocyclobutoxy]phenylamino}pyrimidine], at most 0.5 µM; under `COc1cc(Nc2nccc(Nc3cnc4c(c3)CCCCC4)n2)ccc1O[C@H]1C[C@@H](N(C)C)C1` [Compound 202, 4-{8-azabicyclo[5.4.0]undeca-1(7),8,10-trien-10-ylamino}-2-{3-methoxy-4-[(1s,3s)-3-(dimethylamino)cyclobutoxy]phenylamino}pyrimidine], at most 0.5 µM. Consider `COc1cc(Nc2nccc(Nc3cnc4c(c3)C3CCC(C4)O3)n2)ccc1OCCCN1CCCCC1` (stereo not shown) [Compound 60, 2-[3-methoxy-4-(3-piperidinopropoxy)phenylamino]-4-{12-oxa-6-azatricyclo[7.2.1.0^2,7]dodeca-2(7),3,5-trien-4-ylamino}pyrimidine], for which the half-inhibitory concentration (IC50) is 0.5 to 2 µM. With `COc1cc(Nc2nccc(Nc3cnc4c(F)c(F)ccc4c3)n2)ccc1OCCCN1CCCCC1` [Compound 393, 4-(7,8-difluoro-3-quinolylamino)-2-[3-methoxy-4-(3-piperidinopropoxy)phenylamino]pyrimidine], the IC50 is at most 0.5 µM.

For `COc1cc(Nc2nccc(Nc3cnc4c(c3)SCCC4)n2)ccc1OCCCN1CCCCC1` [Compound 378, 4-(3,4-dihydro-2H-1-thia-5-azanaphth-7-ylamino)-2-[3-methoxy-4-(3-piperidinopropoxy)phenylamino]pyrimidine], the IC50 was at most 0.5 µM. For the compound `COc1cc(Nc2nccc(Nc3cnc4cc(F)c(F)cc4c3)n2)cnc1N1CCN(C2COC2)CC1` [Compound 51, 4-(6,7-difluoro-3-quinolylamino)-2-{5-methoxy-6-[4-(3-oxetanyl)-1-piperazinyl]-3-pyridylamino}pyrimidine], the IC50 was at most 0.5 µM. Under `CN(C)[C@H]1C[C@H](Oc2ccc(Nc3nccc(Nc4cnc5ccccc5c4)n3)cc2C#N)C1` [Compound 42, 5-[4-(3-quinolylamino)-2-pyrimidinylamino]-2-[(1r,3r)-3-(dimethylamino)cyclobutoxy] benzonitrile] stands at most 0.5 µM; under `COc1cc(Nc2nccc(Nc3cnc4ccc(C5CC5)cc4c3)n2)ccc1OCCCN1CCOCC1` [Compound 103, 4-(6-cyclopropyl-3-quinolylamino)-2-[3-methoxy-4-(3-morpholinopropoxy)phenylamino]pyrimidine], at most 0.5 µM; under `COc1cc(Nc2nccc(Nc3cnc4c(c3)OCC(C)(C)O4)n2)ccc1O[C@H]1C[C@@H](N(C)C)C1` [Compound 268, 4-(3,3-dimethyl-2,3-dihydro-1,4-dioxa-5-aza-7-naphthylamino)-2-{3-methoxy-4-[(1s,3s)-3-(dimethylamino)cyclobutoxy]phenylamino}pyrimidine], at most 0.5 µM. The value for `CN1CC(Oc2ccc(Nc3nccc(Nc4cnc5ccccc5c4)n3)cc2)C1` [Compound 295, 2-[p-(1-methyl-3-azetidinyloxy)phenylamino]-4-(3-quinolylamino)pyrimidine] was 2 to 10 µM. Under `CN(C)CC(=O)N1CCc2cc(Nc3nccc(Nc4cc5cccc(F)c5[nH]c4=O)n3)ccc21` [Compound 151, 3-((2-((1-(dimethylglycyl)indolin-5-yl)amino)pyrimidin-4-yl)amino)-8-fluoroquinolin-2(1H)-one] stands at most 0.5 µM; under `COc1cc(Nc2nccc(Nc3ccc4c(c3)OCCO4)n2)ccc1OCCCN1CCCCC1` [Compound 376, 4-(2,3-dihydro-1,4-benzodioxin-6-ylamino)-2-[3-methoxy-4-(3-piperidinopropoxy)phenylamino]pyrimidine], at most 0.5 µM; under `COc1cc(Nc2nccc(Nc3cnc4c(c3)CCCO4)n2)ccc1O[C@H]1C[C@H](N2CCOCC2)C1` [Compound 360, 4-(3,4-dihydro-2H-1-oxa-8-azanaphth-6-ylamino)-2-{3-methoxy-4-[(1r,3r)-3-morpholinocyclobutoxy]phenylamino}pyrimidine], at most 0.5 µM. On to `COc1cc(Nc2nccc(Nc3cc4ccccc4[nH]c3=O)n2)ccc1O[C@H]1C[C@H](N(C)C)C1` [Compound 249, 3-(2-{3-methoxy-4-[(1r,3r)-3-(dimethylamino)cyclobutoxy]phenyl-amino}-4-pyrimidinylamino)-2(1H)-quinolinone], for which the IC50 was at most 0.5 µM.

For `CN(C)CCOc1cc(Nc2nccc(Nc3cnc4ccccc4c3)n2)ccc1N1CCOCC1` [Compound 207, 2-{3-[2-(dimethylamino)ethoxy]-4-morpholinophenylamino}-4-(3-quinolylamino)pyrimidine], the IC50 was at most 0.5 µM. Under `O=S1(=O)CCN([C@H]2C[C@H](Oc3ccc(Nc4nccc(Nc5cnc6c(c5)C5CCC6C5)n4)cc3)C2)CC1` (stereo partly shown) [Compound 351, 4-[(1r,3r)-3-[p-(4-{3-azatricyclo[6.2.1.02,7]undeca-2(7),3,5-trien-5-ylamino}-2-pyrimidinylamino)phenoxy]cyclobutyl]-1λ^6,4-thiazinane-1,1-dione] stands 0.5 to 2 µM; under `COc1cc(Nc2nccc(Nc3ccc4nc(C)ccc4c3)n2)ccc1OCCCN1CCCCC1` [Compound 456, 2-[3-methoxy-4-(3-piperidinopropoxy)phenylamino]-4-(2-methyl-6-quinolylamino) pyrimidine], at most 0.5 µM.
